Experimental data: PubChem BioAssay AID1963838 (Molecular Pharmacology Branch, DTP, NCI, 2024)

System: 855422-203-R-J1-PDC complex spheroid viability
Assay: Anticancer human tumor 855422-203-R-J1-PDC patient-derived bladder carcinoma cell line growth inhibition [POLQ]
Conditions: for IC50: curve of first compound; for viability, T/C: stronger effect = lower value; active = viability on the fitted dose curve at most 10% of control; inactive = the rest
Outline: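 Growth inhibition in 3D: complex spheroids (tumor PDC, HUVEC, MSC) treated with POLQ inhibitor combinations; where Cmax unknown, highest tested concentration 10 microM, except SN-38 at 1 microM.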

[1] = second compound 0.0316 µM, first compound 0.0316 µM
[2] = second compound 0.0316 µM, first compound 0.1 µM
[3] = second compound 0.0316 µM, first compound 0.316 µM
[4] = second compound 0.0316 µM, first compound 1 µM
[5] = second compound 0.0316 µM, first compound 3.16 µM
[6] = second compound 0.0316 µM, first compound 10 µM
[7] = second compound 0.1 µM, first compound 0.0316 µM
[8] = second compound 0.1 µM, first compound 0.1 µM
[9] = second compound 0.1 µM, first compound 0.316 µM
[10] = second compound 0.1 µM, first compound 1 µM
[11] = second compound 0.1 µM, first compound 3.16 µM
[12] = second compound 0.1 µM, first compound 10 µM
[13] = second compound 0.316 µM, first compound 0.0316 µM
[14] = second compound 0.316 µM, first compound 0.1 µM
[15] = second compound 0.316 µM, first compound 0.316 µM
[16] = second compound 0.316 µM, first compound 1 µM
[17] = second compound 0.316 µM, first compound 3.16 µM
[18] = second compound 0.316 µM, first compound 10 µM
[19] = second compound 1 µM, first compound 0.0316 µM
[20] = second compound 1 µM, first compound 0.1 µM
[21] = second compound 1 µM, first compound 0.316 µM
[22] = second compound 1 µM, first compound 1 µM
[23] = second compound 1 µM, first compound 3.16 µM
[24] = second compound 1 µM, first compound 10 µM
[25] = second compound 3.16 µM, first compound 0.0316 µM
[26] = second compound 3.16 µM, first compound 0.1 µM
[27] = second compound 3.16 µM, first compound 0.316 µM
[28] = second compound 3.16 µM, first compound 1 µM
[29] = second compound 3.16 µM, first compound 3.16 µM
[30] = second compound 3.16 µM, first compound 10 µM
[31] = second compound 10 µM, first compound 0.0316 µM
[32] = second compound 10 µM, first compound 0.1 µM
[33] = second compound 10 µM, first compound 0.316 µM
[34] = second compound 10 µM, first compound 1 µM
[35] = second compound 10 µM, first compound 3.16 µM
[36] = second compound 10 µM, first compound 10 µM
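Note: spheroids exposed to compounds for seven days before readout.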

C#Cc1c(F)ccc2cc(O)cc(-c3ncc4c(N5CC6CCC(C5)N6)nc(OCC56CCCN5CC(F)C6)nc4c3F)c12 (centres undefined) + Nc1ccc(C#CCN(C(=O)Cc2ncc(C(F)(F)F)cc2C(F)(F)F)c2ccc(F)cc2)nn1
inactive: viability, T/C [1] 110% | viability, T/C [2] 110% | viability, T/C [3] 102% | viability, T/C [4] 98% | viability, T/C [5] 110% | viability, T/C [6] 109% | viability, T/C [7] 96.4% | viability, T/C [8] 106% | viability, T/C [9] 85.6% | viability, T/C [10] 101% | viability, T/C [11] 138% | viability, T/C [12] 102% | viability, T/C [13] 100% | viability, T/C [14] 120% | viability, T/C [15] 124% | viability, T/C [16] 111% | viability, T/C [17] 120% | viability, T/C [18] 115% | viability, T/C [19] 107% | viability, T/C [20] 98% | viability, T/C [21] 107% | viability, T/C [22] 109% | viability, T/C [23] 113% | viability, T/C [24] 99% | viability, T/C [25] 92.5% | viability, T/C [26] 99% | viability, T/C [27] 97.9% | viability, T/C [28] 97.6% | viability, T/C [29] 108% | viability, T/C [30] 106% | viability, T/C [31] 103% | viability, T/C [32] 94.3% | viability, T/C [33] 90.7% | viability, T/C [34] 100% | viability, T/C [35] 103% | viability, T/C [36] 91.3%
> 10 µM: IC50 (second compound 0.0316 µM) | IC50 (second compound 0.1 µM) | IC50 (second compound 0.316 µM) | IC50 (second compound 1 µM) | IC50 (second compound 3.16 µM) | IC50 (second compound 10 µM)

CC(C)n1c(=O)n(C)c2cnc3cc(F)c(-c4ccc(OCCCN5CCCCC5)nc4)cc3c21 + Nc1ccc(C#CCN(C(=O)Cc2ncc(C(F)(F)F)cc2C(F)(F)F)c2ccc(F)cc2)nn1
> 10 µM: IC50 (second compound 0.0316 µM) | IC50 (second compound 0.1 µM) | IC50 (second compound 0.316 µM) | IC50 (second compound 1 µM) | IC50 (second compound 3.16 µM) | IC50 (second compound 10 µM)
inactive: viability, T/C [1] 100% | viability, T/C [2] 123% | viability, T/C [3] 110% | viability, T/C [4] 94.2% | viability, T/C [5] 99.9% | viability, T/C [6] 107% | viability, T/C [7] 99.4% | viability, T/C [8] 140% | viability, T/C [9] 97.2% | viability, T/C [10] 94.4% | viability, T/C [11] 100% | viability, T/C [12] 93.5% | viability, T/C [13] 96.5% | viability, T/C [14] 128% | viability, T/C [15] 96.3% | viability, T/C [16] 99.3% | viability, T/C [17] 97% | viability, T/C [18] 96.1% | viability, T/C [19] 91.8% | viability, T/C [20] 120% | viability, T/C [21] 95.1% | viability, T/C [22] 99.2% | viability, T/C [23] 101% | viability, T/C [24] 91.3% | viability, T/C [25] 97.9% | viability, T/C [26] 148% | viability, T/C [27] 98% | viability, T/C [28] 106% | viability, T/C [29] 103% | viability, T/C [30] 92.1% | viability, T/C [31] 104% | viability, T/C [32] 101% | viability, T/C [33] 91.3% | viability, T/C [34] 100% | viability, T/C [35] 101% | viability, T/C [36] 82.8%
